Experiments:
ClC-1 protein = experiment: ClC-1 immunofluorescence after ClC-1 antisense morpholino, HSA^LR TA muscle; assay type: in vivo, HSA^LR mice; settings: 3 weeks after treatment, vs invert-treated control
Procedure: (§1) The morpholino was complementary to the 3′ splice site of ClC-1 pre-mRNA. Muscle fibers are outlined by wheat germ agglutinin (wga) and nuclei are highlighted by DAPI. FIGS. 24D and 24 E show brightfield (D) and fluorescence (E) images of a single FDB fiber showing preferential nuclear localization of the antisense morpholino (post injection day 5). […] Bars=20 μM.
Frozen transverse sections of TA muscle (10 μM) were stained with affinity-purified rabbit polyclonal anti-ClC-1 antibody (1:50; Alpha Diagnostic International) as previously described (Kanadia, R. N., et al. (2006) Proc Natl Acad Sci USA 103:11748-11753). Muscle sections from ClC-1 null mice and WT FVB mice served as negative and positive controls on each slide. Z-plane stacks consisting of 8 images separated by 0.25 μM were captured and deconvolved using Autoquant v9.3 software (Autoquant Imaging). Maximum-projection images were obtained using Metavue software (Universal Imaging Corporation). Exposure time and thresholding were identical for all comparisons of antisense vs. invert controls.

[1] = Tissue uptake and distribution of carboxyfluorescein-labeled antisense morpholino; assay type: in vivo, HSA^LR mice; settings: for subcellular localization of antisense morpholino: muscle fibers, TA 3 weeks / FDB day 5
Procedure: Antisense morpholino targeting the 3′ splice junction of ClC-1 exon 7a was injected into foot pad muscle of HSA^LR mice under general anesthesia. Uptake into muscle fibers was enhanced by in vivo electroporation. The morpholino was tagged with fluorescein. 4 days later, individual FDB muscle fibers were isolated. […] As a control, the opposite footpad was injected with morpholino having the inverted sequence. […] The peak current density in HSA^LR mice (center panel) is much lower than in wild-type mice (left panel). However, after morpholino treatment in HSA^LR mice (right panel), the current density is restored to levels that are similar to wild-type mice. […] The antisense morpholino (closed squares) restores chloride current density to normal levels (open circles or triangles).
as §1
The strategy for suppressing the inclusion of exon 7a is diagrammed in FIG. 23A. The morpholino AONs were complementary to the 3′ or 5′ splice sites of exon 7a in the ClC-1 pre-mRNA (FIG. 23B). To examine tissue uptake, a carboxyfluorescein-labeled morpholino was injected into tibialis anterior (TA) muscle of HSA^LR mice. […] To improve uptake and distribution of AON, voltage pulses were used to electroporate muscle fibers after the AON injection.
HSA^LR (Mankodi, A., et al. (2000) Science 289:1769-1773) or Mbnl1^ΔE3/ΔE3 mice (Kanadia, R. N., et al. (2003) Science 302:1978-1980) were anesthetized by intraperitoneal injection of 100 mg/kg ketamine, 10 mg/kg xylazine, and 3 mg/kg acepromazine. TA muscle was pretreated by intramuscular injection of bovine hyaluronidase (15 μl, 0.4 U/μl) (Sigma) (McMahon, J. M., et al. (2001) Gene Ther 8:1264-1270). Two hours later, 10 or 20 μg of morpholino in a total volume of 20 μl phosphate buffered saline (PBS) was injected using a 30-gauge needle. TA muscle was then electroporated using electrodes placed parallel to the long axis of the muscle. Electroporation parameters were 100 V/cm, 10 pulses at 1 Hz, and 20 ms duration per pulse. Antisense or control morpholino with inverted sequence was injected into TA muscles of opposite limbs. The determination of which TA received antisense morpholino was randomized, and investigators remained blinded to this assignment until EMG analyses were completed. Other analyses were performed without blinding. For experiments to determine the distribution of injected oligos, the antisense morpholino was labeled with carboxyfluorescein and cryosections of muscle (10 μM) were examined by fluorescence microscopy, with or without fixation in 4% paraformaldehyde. Some sections were co-labeled with TRITC-wheat germ agglutinin (Parsons, S. A., et al. (2003) Mol Cell Biol 23:4331-4343) (50 μg/ml in PBS; Sigma) and 4′,6-diamidino-2-phenylindole (DAPI) to highlight the surface membranes and nuclei of muscle fibers.

Substance: antisense 1: morpholino 5′-CCAGGCACGGTCTGCAACAGAGAAG-3′ targeting the 3′ splice site of ClC-1 exon 7a (all phosphorodiamidate morpholino (PMO))
- sarcolemmal ClC-1 protein (ClC-1 protein; listed as antisense morpholino): increase of sarcolemmal ClC-1 protein
- sarcolemmal ClC-1 protein (ClC-1 protein; listed as morpholino AON): increased the level of ClC-1 protein in the sarcolemma
- fibers showing fluorescein uptake ([1]; FDB fibers, 4 days after foot pad injection + electroporation): Greater than 90%
- tissue uptake of antisense morpholino ([1]; TA injection followed by electroporation): throughout the TA muscle
- tissue uptake of antisense morpholino ([1]; TA injection without electroporation): limited to the needle track
- subcellular localization of antisense morpholino ([1]; listed as AON): accumulate preferentially in the nucleus
- subcellular localization of antisense morpholino ([1]; listed as antisense morpholino): localizes preferentially to muscle nuclei

From US9371527B2, “Compositions and methods related to protein displacement therapy for myotonic distrophy” (University of Rochester, priority 2006, dated 2016)
